Data taken from ChEMBL document CHEMBL5725409, “Small molecule myristate inhibitors of Bcr-abl and methods of use” (2017).

Assay: Kinase Assay: In vitro kinase assays were carried out by using recombinant murine c-abl containing SH3, SH2 and kinase domains (residues 46-531) and full length immunoprecipitated Bcr-abl. Recombinant abl was expressed in Sf9 insect cells and purified as described above. Bcr-abl immune complexes were obtained with Ab-3 anti-abl monoclonal antibody (Oncogene Science) from Ba/F3.p210 lysates as previously described. 1 μg of recombinant abl or immunoprecipitated Bcr-abl (from 3×10^6 cells) were incubated with various concentrations of test compound (0.1, 1 and 10 M) in kinase buffer (50 mM Tris-HCl pH 7.5, 10 mM MgCl2, […], 1 mM DTT, 0.015% Brij 35), 100 μM ATP and 1 μCi [γ-32P]-ATP for 30 min at 30° C. (Calbiochem buffer and protocol). The reaction was stopped by addition of Laemmli buffer and the proteins were resolved by SDS-PAGE in a 4-20% gel. The phosphoproteins were visualized by autoradiography and the autophosphorylation quantitated using a phosphoimager (STORM, Molecular Devices).

Row | SMILES | IC50 [µM]
1 | COc1cc(-c2cc(Nc3ccc(OC(F)(F)F)cc3)ncn2)co1 | 0.94
2 | O=C(NCCN1CCOCC1)c1cc2c(Nc3ccc(OC(F)(F)F)cc3)ncnc2s1 | > 10
3 | O=C(NC(=O)c1cc2c(Nc3ccc(OC(F)(F)F)cc3)ncnc2s1)c1cccc(C(F)(F)F)c1 | 1.44
